Target: GSK3β (Homo sapiens, UniProt P49841)
Assay: Inhibitory activity against GSK3β (33P-ATP phosphorylation of prephosphorylated GS1 peptide)
Type: biochemical
Settings: protocol 3: 7.5 μM GS1 peptide, 10 μM ATP, 50 mM Hepes pH 7.2, one hour at room temperature
Method: Four different protocols can be used.
In a first protocol: 7.5 μM of prephosphorylated GS1 peptide and 10 μM ATP (containing 300,000 cpm of ^33P-ATP) were incubated in 25 mM Tris-HCl, pH 7.5, 0.6 mM DTT, 6 mM MgCl2, 0.6 mM EGTA, 0.05 mg/ml BSA buffer for 1 hour at room temperature in the presence of GSK3beta (total reaction volume: 100 microliters).
In a second protocol: 4.1 μM of prephosphorylated GS1 peptide and 42 μM ATP (containing 260,000 cpm ^33P-ATP) were incubated in 80 mM Mes-NaOH, pH 6.5, 1 mM Mg acetate, 0.5 mM EGTA, 5 mM 2-mercaptoethanol, 0.02% Tween 20, 10% glycerol buffer for 2 hours at room temperature in the presence of GSK3beta.
In a third protocol: 7.5 μM of prephosphorylated GS1 peptide and 10 μM ATP (containing 300,000 cpm of ^33P-ATP) were incubated in 50 mM Hepes, pH 7.2, 1 mM DTT, 1 mM MgCl2, 1 mM EGTA, 0.01% Tween 20 buffer for one hour at room temperature in the presence of GSK3beta (total reaction volume: 100 microliters). […]
The reaction was stopped with 100 microliters of a solution made of 25 g polyphosphoric acid (85% P2O5), 126 ml 85% H3PO4, H2O to 500 ml and then diluted to 1:100 before use. […] Incorporated ^33P radioactivity was determined by liquid scintillation spectrometry. […]

Chain of GSK3β (P49841 whole entry): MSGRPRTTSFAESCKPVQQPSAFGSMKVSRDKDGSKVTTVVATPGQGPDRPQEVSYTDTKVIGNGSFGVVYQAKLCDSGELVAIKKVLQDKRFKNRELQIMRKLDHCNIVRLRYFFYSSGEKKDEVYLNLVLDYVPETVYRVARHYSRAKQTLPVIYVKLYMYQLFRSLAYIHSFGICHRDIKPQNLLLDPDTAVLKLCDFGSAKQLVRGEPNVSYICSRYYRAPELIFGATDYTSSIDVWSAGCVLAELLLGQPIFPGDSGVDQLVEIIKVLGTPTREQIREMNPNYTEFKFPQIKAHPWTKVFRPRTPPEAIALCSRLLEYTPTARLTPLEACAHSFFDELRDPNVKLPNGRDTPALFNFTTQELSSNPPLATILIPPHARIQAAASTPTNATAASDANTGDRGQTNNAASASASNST

IC50: 506 nM
SMILES: [O-][n+]1cc(NCC(O)c2ccccc2)nc(-c2ccncc2)c1 (racemic) [compound 2, (+/−)2-[(4-oxido-6-pyridin-4-ylpyrazin-2-yl)amino]-1-phenylethanol]
